# Data from patent US4965280A, “Antifungal carbinols” (E. I. Du Pont de Nemours and Company, priority 1989, dated 1990).
# Experiments:
# G4646 CORN = assay: Test D Corn and Sorghum Herbicide Test; type: in vivo, Zea mays
# GIANT FOXTAIL = assay: Test D; type: in vivo, Setaria faberii
# BARNYARDGRASS = assay: Test D; type: in vivo, Echinochloa crus-galli
# Procedure: (§1) The Corn and Sorghum Herbicide Test included the following species in both the preemergence and postemergence evaluations:
# (§2) Postemergence plantings were grown in Sassafras sandy loam soil. Corn and soybeans were grown in separate 25 cm diameter containers. Sorghum and the seven grass weed species were grown in two 18 cm diameter containers, 4 species per container. The seven broadleaf weed species were also grown in two 18 cm diameter containers, 4 species in one container, 3 species in the second container. One additional planting of corn in an 18 cm diameter container was made. The soil surface of this additional container of corn was covered with the absorbent, perlite, before spray treatment so that test chemicals would enter the plant only via the foliage. The plants were grown 10-21 days, dependent upon the species and then sprayed postemergence with the test chemicals dissolved in a nonpytotoxic solvent.
# (§3) Preemergence plantings were grown in fertilized Tama silt loam soil. These plantings are identical to those described in the postemergence section, with the exception of the corn planting having perlite covering the soil surface. These plantings were made the day of or the day before spraying the test chemicals dissolved in a nonphytotoxic solvent.
# (§4) Treated plants and controls were maintained in the greenhouse for 2 to 4 weeks. Visual planting response ratings were made on a percentage scale of 0 to 100 in comparison with a control where 0=no injury, and 100=death.
# JOHNSONGRASS = assay: Test D; type: in vivo, Sorghum halepense
# G522 SORGHUM = assay: Test D; type: in vivo, Sorghum bicolor
# VELVETLEAF = assay: Test D; type: in vivo, Abutilon theophrasti
# Procedure: as §1, §2, §3, §4
# LADY SMARTWEED = assay: Test D; type: in vivo, Polygonum persicaris
# Procedure: as §1, §2, §3, §4
# REDROOT PIGWEED = assay: Test D; type: in vivo, Amaranthus retroflexus
# IVY MORNINGLORY = assay: Test D; type: in vivo, Ipomoea hederacea
smiles,measurement,setting,value
"C=C(c1ccccc1)C(O)(Cn1cncn1)c1ccc(Cl)cc1Cl (stereo not drawn) [Example 50, 2-(2,4-Dichlorophenyl)-3-phenyl-1-(1H-1,2,4-triazol-1-yl)-3-buten-2-ol]",plant response,G4646 CORN; POSTEMERGENCE 0250 GM/HA,0%
same,plant response,G4646 CORN; POSTEMERGENCE 0500 GM/HA,20%
same,plant response,G4646 CORN; PREEMERGENCE 0064 GM/HA,0%
same,plant response,G4646 CORN; PREEMERGENCE 0125 GM/HA,0%
same,plant response,G4646 CORN; PREEMERGENCE 0250 GM/HA,0%
same,plant response,G4646 CORN; PREEMERGENCE 0500 GM/HA,0%
same,plant response,GIANT FOXTAIL; POSTEMERGENCE 0250 GM/HA,0%
same,plant response,GIANT FOXTAIL; POSTEMERGENCE 0500 GM/HA,0%
same,plant response,GIANT FOXTAIL; PREEMERGENCE 0064 GM/HA,20%
same,plant response,GIANT FOXTAIL; PREEMERGENCE 0125 GM/HA,65%
same,plant response,GIANT FOXTAIL; PREEMERGENCE 0250 GM/HA,75%
same,plant response,GIANT FOXTAIL; PREEMERGENCE 0500 GM/HA,85%
same,plant response,BARNYARDGRASS; POSTEMERGENCE 0250 GM/HA,0%
same,plant response,BARNYARDGRASS; POSTEMERGENCE 0500 GM/HA,0%
same,plant response,BARNYARDGRASS; PREEMERGENCE 0064 GM/HA,0%
same,plant response,BARNYARDGRASS; PREEMERGENCE 0125 GM/HA,0%
same,plant response,BARNYARDGRASS; PREEMERGENCE 0250 GM/HA,20%
same,plant response,BARNYARDGRASS; PREEMERGENCE 0500 GM/HA,45%
same,plant response,JOHNSONGRASS; POSTEMERGENCE 0250 GM/HA,20%
same,plant response,JOHNSONGRASS; POSTEMERGENCE 0500 GM/HA,40%
same,plant response,JOHNSONGRASS; PREEMERGENCE 0064 GM/HA,35%
same,plant response,JOHNSONGRASS; PREEMERGENCE 0125 GM/HA,70%
same,plant response,JOHNSONGRASS; PREEMERGENCE 0250 GM/HA,90%
same,plant response,JOHNSONGRASS; PREEMERGENCE 0500 GM/HA,95%
same,plant response,G522 SORGHUM; POSTEMERGENCE 0250 GM/HA,0%
same,plant response,G522 SORGHUM; POSTEMERGENCE 0500 GM/HA,0%
same,plant response,G522 SORGHUM; PREEMERGENCE 0064 GM/HA,0%
same,plant response,G522 SORGHUM; PREEMERGENCE 0125 GM/HA,0%
same,plant response,G522 SORGHUM; PREEMERGENCE 0250 GM/HA,0%
same,plant response,G522 SORGHUM; PREEMERGENCE 0500 GM/HA,0%
same,plant response,VELVETLEAF; POSTEMERGENCE 0250 GM/HA,0%
same,plant response,VELVETLEAF; POSTEMERGENCE 0500 GM/HA,25%
same,plant response,VELVETLEAF; PREEMERGENCE 0064 GM/HA,0%
same,plant response,VELVETLEAF; PREEMERGENCE 0125 GM/HA,25%
same,plant response,VELVETLEAF; PREEMERGENCE 0250 GM/HA,40%
same,plant response,VELVETLEAF; PREEMERGENCE 0500 GM/HA,65%
same,plant response,LADY SMARTWEED; POSTEMERGENCE 0250 GM/HA,30%
same,plant response,LADY SMARTWEED; POSTEMERGENCE 0500 GM/HA,40%
same,plant response,LADY SMARTWEED; PREEMERGENCE 0064 GM/HA,0%
same,plant response,LADY SMARTWEED; PREEMERGENCE 0125 GM/HA,0%
same,plant response,LADY SMARTWEED; PREEMERGENCE 0250 GM/HA,20%
same,plant response,LADY SMARTWEED; PREEMERGENCE 0500 GM/HA,40%
same,plant response,REDROOT PIGWEED; POSTEMERGENCE 0250 GM/HA,65%
same,plant response,REDROOT PIGWEED; POSTEMERGENCE 0500 GM/HA,95%
same,plant response,REDROOT PIGWEED; PREEMERGENCE 0064 GM/HA,0%
same,plant response,REDROOT PIGWEED; PREEMERGENCE 0125 GM/HA,40%
same,plant response,REDROOT PIGWEED; PREEMERGENCE 0250 GM/HA,85%
same,plant response,REDROOT PIGWEED; PREEMERGENCE 0500 GM/HA,100%
same,plant response,IVY MORNINGLORY; POSTEMERGENCE 0250 GM/HA,20%
same,plant response,IVY MORNINGLORY; POSTEMERGENCE 0500 GM/HA,60%
same,plant response,IVY MORNINGLORY; PREEMERGENCE 0064 GM/HA,0%
same,plant response,IVY MORNINGLORY; PREEMERGENCE 0125 GM/HA,30%
same,plant response,IVY MORNINGLORY; PREEMERGENCE 0250 GM/HA,40%
same,plant response,IVY MORNINGLORY; PREEMERGENCE 0500 GM/HA,65%
C=C(c1ccccc1Cl)C(O)(Cn1cncn1)c1ccc(F)cc1F (stereo not drawn) [Example 35],plant response,G4646 CORN; POSTEMERGENCE 0250 GM/HA,0%
same,plant response,G4646 CORN; POSTEMERGENCE 0500 GM/HA,0%
same,plant response,G4646 CORN; PREEMERGENCE 0064 GM/HA,0%
same,plant response,G4646 CORN; PREEMERGENCE 0125 GM/HA,0%
same,plant response,G4646 CORN; PREEMERGENCE 0250 GM/HA,0%
same,plant response,G4646 CORN; PREEMERGENCE 0500 GM/HA,0%
same,plant response,GIANT FOXTAIL; POSTEMERGENCE 0250 GM/HA,0%
same,plant response,GIANT FOXTAIL; POSTEMERGENCE 0500 GM/HA,60%
same,plant response,GIANT FOXTAIL; PREEMERGENCE 0064 GM/HA,0%
same,plant response,GIANT FOXTAIL; PREEMERGENCE 0125 GM/HA,50%
same,plant response,GIANT FOXTAIL; PREEMERGENCE 0250 GM/HA,80%
same,plant response,GIANT FOXTAIL; PREEMERGENCE 0500 GM/HA,100%
same,plant response,BARNYARDGRASS; POSTEMERGENCE 0250 GM/HA,40%
same,plant response,BARNYARDGRASS; POSTEMERGENCE 0500 GM/HA,60%
same,plant response,BARNYARDGRASS; PREEMERGENCE 0064 GM/HA,0%
same,plant response,BARNYARDGRASS; PREEMERGENCE 0125 GM/HA,60%
same,plant response,BARNYARDGRASS; PREEMERGENCE 0250 GM/HA,40%
same,plant response,BARNYARDGRASS; PREEMERGENCE 0500 GM/HA,100%
same,plant response,JOHNSONGRASS; POSTEMERGENCE 0250 GM/HA,0%
same,plant response,JOHNSONGRASS; POSTEMERGENCE 0500 GM/HA,50%
same,plant response,JOHNSONGRASS; PREEMERGENCE 0064 GM/HA,30%
same,plant response,JOHNSONGRASS; PREEMERGENCE 0125 GM/HA,30%
same,plant response,JOHNSONGRASS; PREEMERGENCE 0250 GM/HA,100%
same,plant response,JOHNSONGRASS; PREEMERGENCE 0500 GM/HA,100%
same,plant response,G522 SORGHUM; POSTEMERGENCE 0250 GM/HA,0%
same,plant response,G522 SORGHUM; POSTEMERGENCE 0500 GM/HA,50%
same,plant response,G522 SORGHUM; PREEMERGENCE 0064 GM/HA,0%
same,plant response,G522 SORGHUM; PREEMERGENCE 0125 GM/HA,0%
same,plant response,G522 SORGHUM; PREEMERGENCE 0250 GM/HA,0%
same,plant response,G522 SORGHUM; PREEMERGENCE 0500 GM/HA,0%
same,plant response,VELVETLEAF; POSTEMERGENCE 0250 GM/HA,60%
same,plant response,VELVETLEAF; POSTEMERGENCE 0500 GM/HA,90%
same,plant response,VELVETLEAF; PREEMERGENCE 0064 GM/HA,60%
same,plant response,VELVETLEAF; PREEMERGENCE 0125 GM/HA,70%
same,plant response,VELVETLEAF; PREEMERGENCE 0250 GM/HA,100%
same,plant response,VELVETLEAF; PREEMERGENCE 0500 GM/HA,100%
same,plant response,LADY SMARTWEED; POSTEMERGENCE 0250 GM/HA,50%
same,plant response,LADY SMARTWEED; POSTEMERGENCE 0500 GM/HA,50%
same,plant response,LADY SMARTWEED; PREEMERGENCE 0064 GM/HA,0%
same,plant response,LADY SMARTWEED; PREEMERGENCE 0125 GM/HA,30%
same,plant response,LADY SMARTWEED; PREEMERGENCE 0250 GM/HA,50%
same,plant response,LADY SMARTWEED; PREEMERGENCE 0500 GM/HA,100%
same,plant response,REDROOT PIGWEED; POSTEMERGENCE 0250 GM/HA,30%
same,plant response,REDROOT PIGWEED; POSTEMERGENCE 0500 GM/HA,70%
same,plant response,REDROOT PIGWEED; PREEMERGENCE 0064 GM/HA,0%
same,plant response,REDROOT PIGWEED; PREEMERGENCE 0125 GM/HA,0%
same,plant response,REDROOT PIGWEED; PREEMERGENCE 0250 GM/HA,50%
same,plant response,REDROOT PIGWEED; PREEMERGENCE 0500 GM/HA,98%
same,plant response,IVY MORNINGLORY; POSTEMERGENCE 0250 GM/HA,20%
same,plant response,IVY MORNINGLORY; POSTEMERGENCE 0500 GM/HA,30%
same,plant response,IVY MORNINGLORY; PREEMERGENCE 0064 GM/HA,0%
same,plant response,IVY MORNINGLORY; PREEMERGENCE 0125 GM/HA,0%
same,plant response,IVY MORNINGLORY; PREEMERGENCE 0250 GM/HA,0%
same,plant response,IVY MORNINGLORY; PREEMERGENCE 0500 GM/HA,30%
